The text below walks through data of patent US10617769B2, “Bacterium-contained hydrogel and method of making the same” (TCI Co., Ltd., priority 2016, dated 2020).

A word on the MBC: it is the lowest tested concentration that kills the bacteria rather than only halting them. A lower MBC goes with more potent killing.

Test [1] relates to USA300. The test is described as follows: Minimum bactericidal concentration (MBC) assay, anti-USA300 activity of SCFAs. As to conditions: USA300 10^6 CFU/mL, overnight incubation, tested 0.02 mM to 100 mM; for MBC: Staphylococcus aureus. Type of test: cell-based, Staphylococcus aureus. Here is the method:
Experimental method: USA 300 (10^6 CFU/m L) were respectively incubated with different concentrations of butyric acid or acetic acid on 96-well microtiter plates overnight; the testing concentrations of acetic acid and butyric acid were from 0.02 mM to 100 mM, each well was respectively added 100 microliters of acetic acid or butyric acid with different concentrations. In the control groups, only PBS was added to the wells. After incubation, the USA300 was diluted 1:10^0 to 1:10^5 with PBS, 5 μl of the dilution was spread to the agar plate; after overnight incubation, colonies (CFU) on the algal plate were counted. MBC is defined as the degree of sterilization at 99.9% (greater than […] colony/mL).
Referring to FIG. 4A through FIG. 4D. FIG. 4A and FIG. 4C show the images of bacterial growth on culture plates. […] UD means undetectable.

The test system of another test is S. epidermidis. The test is described as follows: Fermentation of PEG-monosaccharide polymers in solid agar medium with phenol red. Format: cell-based, Staphylococcus epidermidis. As to conditions: compound (+), S. epidermidis added to solid agar medium. Here is the method:
(§1) The experimental method is described as follows: compound A and compound B were respectively added to the solid agar media, and S. epidermidis or P. acnes were added to the media, then the bacteria were incubated, and then the color of phenol red in the media were recorded.

The subject of the next test is P. acnes. Described as above. Type of test: cell-based, Propionibacterium acnes. Particulars: compound (+), P. acnes added to solid agar medium. Here is the method:
as §1

Test [2] relates to USA300. As to conditions: in vitro and in vivo; stated as known; cited from earlier work.

≈ marks a conversion by molar mass, not a printed value.

As to `CC(=O)O` [acetic acid], in the test with USA300 [1], the MBC worked out at 10 mM (≈ 601 µg/mL) and the “Concentration for complete inhibition” value is on record as 50 mM. On the same counts, the results for `CCCC(=O)O` [butyric acid] are 10 mM (≈ 881 µg/mL) and 50 mM. In the case of `C#CCOCCOCCOCCOCCOC1OC(CO)C(O)C(O)C1O` [Compound A, propargyl-PEG5-beta-D-glucose], the “Color of phenol red in the medium” value is recorded as “Yellow” in the test with S. epidermidis and “Red” in the test on P. acnes. Take `C#CCOCCOCCOCCOCCOC1OC(COC(C)=O)C(OC(C)=O)C(OC(C)=O)C1OC(C)=O` [Compound B, PEG5-tetra-Ac-beta-D-glucose]: the “Color of phenol red in the medium” value is reported as “Yellow” in the test on S. epidermidis and “Red” in the test on P. acnes. For `CCC(=O)O` [propionic acid], in the test on USA300 [2], the “Growth of USA300” value is “suppress the growth of USA300”.
